This is an account of results in patent US8471005B2 (Cephalon, Inc., priority 2008, dated 2013).

One experiment addresses T1, ALK (Homo sapiens, UniProt Q9UM73).
T1 construct: host or cells: baculovirus expression system
Briefly: ALK Kinase Assay (ELISA/TRF, PLC-γ substrate). The experiment is classed as biochemical. The note with it: read-out: ALK Potency. In short, it runs like this: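 Time-resolved fluorescence ELISA using Eu-N1 PT66 antibody to detect phosphorylated PLC-γ (coated at 10 μg/mL). Enzyme at 30 ng/ml ALK; 15 min incubation, 37° C.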
On the technique in general: An ELISA detects its analyte on a solid surface through an enzyme-linked reagent.

The next experiment deals with T2, JAK2 (Homo sapiens, UniProt O60674).
T2 construct: host or cells: baculovirus expression system
Nature of the experiment: Recombinant Human JAK2 Kinase Assay (TRF). The format is biochemical. The note with it: read-out: JAK2 Potency. In short, it runs like this:
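TRF read-out: Eu-N1 PY100 anti-phosphotyrosine antibody detects product. Enzyme is baculovirus-expressed JAK2 at 15 ng/ml; substrate is a biotinyl 15-mer peptide bound to Neutravidin-coated wells. Buffer 20 mM HEPES pH 7.2, 0.2 μM ATP, 1 mM MnCl2, 0.1% BSA, 2.5% DMSO final; 20 min, RT.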

Where [1] appears, read: ALK kinase inhibition, 1 μM ATP.
[2] abbreviates: JAK2 kinase inhibition, 0.2 μM ATP.

pIC50: −log10 of the molar value. Like-named read-outs stand apart in the source and are kept apart here. A value given as a limit tells only on which side of the number the result lay.

T2 sequence (O60674 whole entry): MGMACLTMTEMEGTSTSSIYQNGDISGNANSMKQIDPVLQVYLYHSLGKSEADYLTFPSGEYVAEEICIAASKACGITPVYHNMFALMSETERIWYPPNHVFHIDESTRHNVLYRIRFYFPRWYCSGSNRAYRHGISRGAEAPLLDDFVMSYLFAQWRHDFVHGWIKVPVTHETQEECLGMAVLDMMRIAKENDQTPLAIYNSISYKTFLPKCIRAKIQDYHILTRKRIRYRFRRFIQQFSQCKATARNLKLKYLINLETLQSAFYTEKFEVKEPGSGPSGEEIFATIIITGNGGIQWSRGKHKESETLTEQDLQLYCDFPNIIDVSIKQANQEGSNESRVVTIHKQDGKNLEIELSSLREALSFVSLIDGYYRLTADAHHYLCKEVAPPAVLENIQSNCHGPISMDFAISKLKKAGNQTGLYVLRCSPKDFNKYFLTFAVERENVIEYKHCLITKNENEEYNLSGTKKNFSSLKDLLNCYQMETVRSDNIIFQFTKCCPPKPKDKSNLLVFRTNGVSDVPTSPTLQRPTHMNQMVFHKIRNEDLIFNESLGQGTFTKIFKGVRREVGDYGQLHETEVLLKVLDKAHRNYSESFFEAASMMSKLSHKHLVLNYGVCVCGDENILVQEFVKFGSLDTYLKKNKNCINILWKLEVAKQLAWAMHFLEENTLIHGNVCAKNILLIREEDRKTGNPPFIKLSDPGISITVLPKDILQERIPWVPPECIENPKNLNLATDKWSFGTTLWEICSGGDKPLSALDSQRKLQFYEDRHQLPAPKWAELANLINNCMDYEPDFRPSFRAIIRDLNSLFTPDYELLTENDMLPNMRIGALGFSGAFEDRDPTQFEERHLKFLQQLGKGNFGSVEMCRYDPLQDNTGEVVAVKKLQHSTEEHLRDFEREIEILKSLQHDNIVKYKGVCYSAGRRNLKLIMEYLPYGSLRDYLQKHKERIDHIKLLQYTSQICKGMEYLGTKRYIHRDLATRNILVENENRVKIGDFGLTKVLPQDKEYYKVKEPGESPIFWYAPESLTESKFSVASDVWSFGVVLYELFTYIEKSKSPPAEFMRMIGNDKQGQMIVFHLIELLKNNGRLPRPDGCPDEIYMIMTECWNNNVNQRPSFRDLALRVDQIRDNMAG
T1 sequence (Q9UM73 19-1620): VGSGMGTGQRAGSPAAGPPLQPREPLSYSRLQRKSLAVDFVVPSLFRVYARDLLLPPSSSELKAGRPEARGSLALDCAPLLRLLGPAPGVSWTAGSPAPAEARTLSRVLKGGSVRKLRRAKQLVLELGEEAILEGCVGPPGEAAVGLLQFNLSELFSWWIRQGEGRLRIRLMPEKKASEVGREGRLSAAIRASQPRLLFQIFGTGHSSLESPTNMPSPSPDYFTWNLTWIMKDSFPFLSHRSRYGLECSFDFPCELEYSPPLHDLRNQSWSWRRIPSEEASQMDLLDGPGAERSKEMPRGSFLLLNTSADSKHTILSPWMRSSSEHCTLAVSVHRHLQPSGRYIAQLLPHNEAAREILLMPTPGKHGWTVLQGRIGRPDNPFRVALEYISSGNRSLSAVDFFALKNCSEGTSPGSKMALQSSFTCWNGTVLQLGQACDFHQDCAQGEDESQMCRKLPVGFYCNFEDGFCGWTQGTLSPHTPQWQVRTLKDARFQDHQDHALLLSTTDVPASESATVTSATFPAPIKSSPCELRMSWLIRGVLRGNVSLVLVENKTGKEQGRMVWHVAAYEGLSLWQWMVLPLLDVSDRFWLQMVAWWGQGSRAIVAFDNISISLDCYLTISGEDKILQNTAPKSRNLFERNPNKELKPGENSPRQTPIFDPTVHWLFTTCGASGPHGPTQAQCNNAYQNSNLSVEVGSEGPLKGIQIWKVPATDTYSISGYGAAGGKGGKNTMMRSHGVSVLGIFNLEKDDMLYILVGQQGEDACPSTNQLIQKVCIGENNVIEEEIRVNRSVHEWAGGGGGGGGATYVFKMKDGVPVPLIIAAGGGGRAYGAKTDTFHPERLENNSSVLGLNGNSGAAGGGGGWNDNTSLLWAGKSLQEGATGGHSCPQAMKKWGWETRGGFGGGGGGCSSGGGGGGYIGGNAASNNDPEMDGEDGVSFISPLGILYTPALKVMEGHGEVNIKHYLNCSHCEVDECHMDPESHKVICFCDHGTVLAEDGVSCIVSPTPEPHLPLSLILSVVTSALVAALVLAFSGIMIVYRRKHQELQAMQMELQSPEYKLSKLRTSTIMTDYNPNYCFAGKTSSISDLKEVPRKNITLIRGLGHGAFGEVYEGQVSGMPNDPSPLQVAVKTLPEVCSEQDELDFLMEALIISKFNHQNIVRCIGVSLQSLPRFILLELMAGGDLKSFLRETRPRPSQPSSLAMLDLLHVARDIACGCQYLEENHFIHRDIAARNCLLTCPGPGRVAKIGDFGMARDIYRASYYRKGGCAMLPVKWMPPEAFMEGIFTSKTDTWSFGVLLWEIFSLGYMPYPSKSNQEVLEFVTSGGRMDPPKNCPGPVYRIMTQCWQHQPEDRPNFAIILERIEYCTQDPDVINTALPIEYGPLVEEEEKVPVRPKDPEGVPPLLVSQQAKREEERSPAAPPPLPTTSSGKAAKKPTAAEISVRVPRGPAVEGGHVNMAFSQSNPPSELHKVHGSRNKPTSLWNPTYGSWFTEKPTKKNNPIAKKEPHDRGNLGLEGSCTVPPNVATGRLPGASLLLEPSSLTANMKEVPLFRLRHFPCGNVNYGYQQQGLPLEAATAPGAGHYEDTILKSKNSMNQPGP

Consider `COc1cc([C@@]2(O)CCN(CCF)C[C@@H]2O)ccc1Nc1ncc2ccc(-c3ccccc3N(C)S(C)(=O)=O)n2n1` (racemic) [Example 845, (±)-N-[2-(2-{4-[(3S,4S)-1-(2-Fluoro-ethyl)-3,4-dihydroxy-piperidin-4-yl]-2-methoxy-phenylamino}-pyrrolo[2,1-f][1,2,4]triazin-7-yl)-phenyl]-N-methyl-methanesulfonamide], for which the pIC50 was over 7.00 on ALK (setting [1]) and 6.00 to 7.00 at JAK2 (setting [2]).

On to `COc1ccc(Cl)cc1-c1ccc2cnc(Nc3cccc(C(=O)N4CCN(C)CC4)c3)nn12` [Example 339, {3-[7-(5-Chloro-2-methoxy-phenyl)-pyrrolo[2,1-f][1,2,4]triazin-2-ylamino]-phenyl}-(4-methyl-piperazin-1-yl)-methanone], for which the pIC50 at ALK (ALK Kinase Inhibition) was 6.00 to 7.00; on JAK2 (JAK2 Kinase Inhibition) it was over 7.00.

As to `Cn1cnc(-c2ccc3cnc(Nc4ccc(N5CCOCC5)cc4)nn23)c1` [Example 1045, [7-(1-Methyl-1H-imidazol-4-yl)-pyrrolo[2,1-f][1,2,4]triazin-2-yl]-(4-morpholin-4-yl-phenyl)-amine], the pIC50 on ALK (setting [1]) is 5.00 to 6.00; on JAK2 (setting [2]) it was over 7.00.

As to `COc1ccccc1-c1ccc2cnc(Nc3ccc4nc(CN5CCOCC5)[nH]c4c3)nn12` [Example 1518, [7-(2-Methoxy-phenyl)-pyrrolo[2,1-f][1,2,4]triazin-2-yl]-(2-morpholin-4-ylmethyl-3H-benzimidazol-5-yl)-amine], the pIC50 on ALK (ALK Kinase Inhibition) is 6.00 to 7.00; on JAK2 (JAK2 Kinase Inhibition) it was over 7.00.

For `COc1cc(C2CCCN(CC(N)=O)C2)ccc1Nc1ncc2ccc(-c3ccccc3OC)n2n1` (racemic) [Example 860, (±)-2-(3-{3-Methoxy-4-[7-(2-methoxy-phenyl)-pyrrolo[2,1-f][1,2,4]triazin-2-ylamino]-phenyl}-piperidin-1-yl)-acetamide], the pIC50 on ALK (setting [1]) and on JAK2 (setting [2]) was over 7.00 throughout.

For `COc1cc(N2CCC(N3CCN(C)CC3)CC2)ccc1Nc1ncc2ccc(-c3ccccc3S(=O)(=O)N(C)C)n2n1` [Example 532, 2-(2-{2-Methoxy-4-[4-(4-methyl-piperazin-1-yl)-piperidin-1-yl]-phenylamino}-pyrrolo[2,1-f][1,2,4]triazin-7-yl)-N,N-dimethyl-benzenesulfonamide], the pIC50 on ALK (setting [1]) was over 7.00; at JAK2 (setting [2]), 5.00 to 6.00.

On to `CN(c1ccccc1-c1ccc2cnc(Nc3ccc4c(c3)ncn4CCN3CCOCC3)nn12)S(C)(=O)=O` [Example 1335, N-Methyl-N-(2-{2-[1-(2-morpholin-4-yl-ethyl)-1H-benzimidazol-5-ylamino]-pyrrolo[2,1-f][1,2,4]triazin-7-yl}-phenyl)-methanesulfonamide], for which the pIC50 at ALK (setting [1]) was 6.00 to 7.00; on JAK2 (setting [2]), over 7.00.

As to `OCc1cccc(-c2ccc3cnc(Nc4cccc(N5CCOCC5)c4)nn23)c1` [Example 1561, {3-[2-(3-Morpholin-4-yl-phenylamino)-pyrrolo[2,1-f][1,2,4]triazin-7-yl]-phenyl}-methanol], the pIC50 on ALK (ALK Kinase Inhibition) was 5.00 to 6.00; at JAK2 (JAK2 Kinase Inhibition) it was over 7.00.

On to `COc1ccc(-c2ccc3cnc(Nc4ccc(N5CCN(CCO)CC5)cc4)nn23)cn1` [Example 1104, 2-(4-{4-[7-(6-Methoxy-pyridin-3-yl)-pyrrolo[2,1-f][1,2,4]triazin-2-ylamino]-phenyl}-piperazin-1-yl)-ethanol], for which the figures for the pIC50 on ALK (setting [1]) and on JAK2 (setting [2]) were 6.00 to 7.00 and over 7.00, respectively.

As for `COc1cc(C2CCN(CC(N)=O)CC2)ccc1Nc1ncc2ccc(-c3ccncc3OC)n2n1` [Example 857, 2-(4-{3-Methoxy-4-[7-(3-methoxy-pyridin-4-yl)-pyrrolo[2,1-f][1,2,4]triazin-2-ylamino]-phenyl}-piperidin-1-yl)-acetamide], the figures for the pIC50 at ALK (setting [1]) and at JAK2 (setting [2]) were over 7.00 and 6.00 to 7.00, respectively.

For `CN1CCc2cc(Nc3ncc4ccc(-c5cccc(S(=O)(=O)NC(C)(C)C)c5)n4n3)ccc2C1` [Example 921, N-tert-Butyl-3-[2-(2-methyl-1,2,3,4-tetrahydro-isoquinolin-6-ylamino)-pyrrolo[2,1-f][1,2,4]triazin-7-yl]-benzenesulfonamide], the pIC50 on ALK (setting [1]) and at JAK2 (setting [2]) was over 7.00 in each case.

For `COc1cc(C2CCN(CC(N)=O)CC2)ccc1Nc1ncc2ccc(-c3ccccc3OC)n2n1` [Example 814, 2-(4-{3-Methoxy-4-[7-(2-methoxy-phenyl)-pyrrolo[2,1-f][1,2,4]triazin-2-ylamino]-phenyl}-piperidin-1-yl)-acetamide], the pIC50 on ALK (setting [1]) was over 7.00; on JAK2 (setting [2]), 6.00 to 7.00.

Regarding `Oc1ccc(-c2ccc3cnc(Nc4cccc(N5CCOCC5)c4)nn23)cn1` [Example 332, 5-[2-(3-Morpholin-4-yl-phenylamino)-pyrrolo[2,1-f][1,2,4]triazin-7-yl]-pyridin-2-ol], the pIC50 on ALK (ALK Kinase Inhibition) and on JAK2 (JAK2 Kinase Inhibition) was under 5.00 throughout.

As for “N-{2-[2-(2-Oxo-2,3-dihydro-benzooxazol-6-ylamino)pyrrolo[2,1-f][1,2,4]triazin-7-yl]phenyl}methanesulfonamide [Example 629]”, the pIC50 at ALK (setting [1]) was 6.00 to 7.00; on JAK2 (setting [2]) it was over 7.00.

Consider `CC(C)(C)NS(=O)(=O)c1cccc(-c2ccc3cnc(Nc4ccc5nc(C(F)(F)F)[nH]c5c4)nn23)c1` [Example 1297, N-tert-Butyl-3-[2-(2-trifluoromethyl-3H-benzimidazol-5-ylamino)-pyrrolo[2,1-f][1,2,4]triazin-7-yl]-benzenesulfonamide], for which the values for the pIC50 on ALK (setting [1]) and at JAK2 (setting [2]) were under 5.00 and over 7.00, respectively.

Consider `COc1ccc(Cl)cc1-c1ccc2cnc(Nc3ccc(C4CCN(CC(N)=O)CC4)cc3)nn12` [Example 1024], for which the pIC50 at ALK (setting [1]) and on JAK2 (setting [2]) was over 7.00 throughout.

`COc1cc(N2CCC(N(C)C)C2)ccc1Nc1ncc2ccc(-c3ccccc3OC)n2n1` (stereo not drawn) [Example 763, [4-(3-Dimethylamino-pyrrolidin-1-yl)-2-methoxy-phenyl]-[7-(2-methoxy-phenyl)-pyrrolo[2,1-f][1,2,4]triazin-2-yl]-amine]: the pIC50 on ALK (setting [1]) and at JAK2 (setting [2]) was over 7.00 throughout.

As to `CN(c1ccccc1-c1ccc2cnc(Nc3ccc4cn[nH]c4c3)nn12)S(C)(=O)=O` [Example 1337, N-{2-[2-(1H-Indazol-6-ylamino)-pyrrolo[2,1-f][1,2,4]triazin-7-yl]-phenyl}-N-methyl-methanesulfonamide], the pIC50 on ALK (setting [1]) was 6.00 to 7.00; on JAK2 (setting [2]) it was over 7.00.

As for `NC(=O)c1ccccc1-c1ccc2cnc(Nc3ccc(N4CCOCC4)cc3)nn12` [Example 36, 2-[2-(4-Morpholin-4-yl-phenylamino)-pyrrolo[2,1-f][1,2,4]triazin-7-yl]-benzamide], the pIC50 at ALK (ALK Kinase Inhibition) was 5.00 to 6.00; on JAK2 (JAK2 Kinase Inhibition), over 7.00.

`CC(=O)c1ccccc1-c1ccc2cnc(Nc3ccc(N4CCN(C)CC4)cc3)nn12` [Example 402, 1-(2-{2-[4-(4-Methyl-piperazin-1-yl)-phenylamino]-pyrrolo[2,1-f][1,2,4]triazin-7-yl}-phenyl)-ethanone]: the pIC50 on ALK (ALK Kinase Inhibition) is 6.00 to 7.00; at JAK2 (JAK2 Kinase Inhibition), over 7.00.

Regarding `CN1CCN(c2ccc(Nc3ncc4ccc(-c5cncc(CNCCS(C)(=O)=O)c5)n4n3)cc2)CC1` [Example 1198, (7-{5-[(2-Methanesulfonyl-ethylamino)-methyl]-pyridin-3-yl}-pyrrolo[2,1-f][1,2,4]triazin-2-yl)-[4-(4-methyl-piperazin-1-yl)-phenyl]-amine], the pIC50 at ALK (setting [1]) was 5.00 to 6.00; on JAK2 (setting [2]) it was over 7.00.

In the case of `CN1CCN(C2CCN(c3ccc(Nc4ncc5ccc(-c6cccnc6)n5n4)cc3)CC2)CC1` [Example 313, {4-[4-(4-Methyl-piperazin-1-yl)-piperidin-1-yl]-phenyl}-(7-pyridin-3-yl-pyrrolo[2,1-f][1,2,4]triazin-2-yl)-amine], the pIC50 at ALK (ALK Kinase Inhibition) was 6.00 to 7.00; at JAK2 (JAK2 Kinase Inhibition), over 7.00.

Consider `COc1ccc(-c2ccc3cnc(Nc4cc5c(cc4F)CCC(=O)N5)nn23)cn1` [Example 983, 6-Fluoro-7-[7-(6-methoxy-pyridin-3-yl)-pyrrolo[2,1-f][1,2,4]triazin-2-ylamino]-3,4-dihydro-1H-quinolin-2-one], for which the pIC50 at ALK (setting [1]) is under 5.00; at JAK2 (setting [2]), over 7.00.

On to `COc1ccccc1-c1cc(C)c2cnc(Nc3ccc(N4CCN(C)CC4)cc3)nn12` [Example 105, [7-(2-Methoxy-phenyl)-5-methyl-pyrrolo[2,1-f][1,2,4]triazin-2-yl]-[4-(4-methyl-piperazin-1-yl)-phenyl]-amine], for which the pIC50 at ALK (ALK Kinase Inhibition) and at JAK2 (JAK2 Kinase Inhibition) was over 7.00 each time.

On to `COc1ccccc1-c1ccc2cnc(Nc3ccc(N4CCOCC4)cc3F)nn12` [Example 370, (2-Fluoro-4-morpholin-4-yl-phenyl)-[7-(2-methoxy-phenyl)-pyrrolo[2,1-f][1,2,4]triazin-2-yl]-amine], for which the pIC50 is 6.00 to 7.00 at ALK (ALK Kinase Inhibition) and over 7.00 at JAK2 (JAK2 Kinase Inhibition).

With `COc1ccccc1-c1ccc2cnc(Nc3ccc(N4CCCC(N5CCN(C)CC5)C4)cc3)nn12` (stereo not drawn) [Example 348, [7-(2-Methoxy-phenyl)-pyrrolo[2,1-f][1,2,4]triazin-2-yl]-{4-[3-(4-methyl-piperazin-1-yl)-piperidin-1-yl]-phenyl}-amine], the pIC50 on ALK (ALK Kinase Inhibition) and on JAK2 (JAK2 Kinase Inhibition) was over 7.00 each time.

Consider `COc1ccccc1-c1ccc2cnc(Nc3ccc(C4CCN(C(=O)C5CCN(C)CC5)CC4)cc3)nn12` [Example 500, (4-{4-[7-(2-Methoxy-phenyl)-pyrrolo[2,1-f][1,2,4]triazin-2-ylamino]-phenyl}-piperidin-1-yl)-(1-methyl-piperidin-4-yl)-methanone], for which the pIC50 on ALK (setting [1]) and on JAK2 (setting [2]) was over 7.00 throughout.
